Data as given in patent publication US20070276034A1, “Compounds, compositions and methods for the treatment of synucleinopathies” (priority 2002, published 2007).

How the values were obtained:
Aβ 1-42 fibrils [1] = biological target: T1, Aβ 1-42 fibrils (Homo sapiens, UniProt P05067); experiment: Circular dichroism spectroscopy of Aβ 1-42 fibrils; assay type: biochemical
T1 construct: purchased Bachem Inc
Experimental: Circular dichroism (CD) spectroscopy is a method that can be used to determine the effects of test compounds to disrupt the secondary structure conformation of amyloid fibrils. In one study, as described in this example, circular dichroism spectroscopy was used to determine the effects of different compounds of the invention on β-sheet conformation of Aβ 1-42 fibrils. For this study, Aβ 1-42 (Bachem Inc., Torrance, Calif.) was first dissolved in a 2 mM NaOH solution, maintaining the pH of these solutions above 10. […] Aβ 1-42 was then incubated at 37° C. in the absence or presence of different compounds at an Aβ:test compound wt/wt ratios of 1:0.1, 1:1 and 1:10. After 3 days of incubation, CD spectra were recorded on a Jasco 810 spectropolarimeter (Easton, Md.). All CD spectra were collected with 0.05 cm quartz cells. Wavelength traces were scanned from 190-260 nm at 0.5 nm increments with a bandwidth of 5 nm, at a scan speed of 10 nm/minute, a response time of 32 seconds, and a data pitch of 0.5 nm. The whole system was equilibrated and continuously flushed with nitrogen at 10 ml/minute. […] Ellipticity in degrees was converted to MRE ([Q]; molar residue ellipticity) using the formula [Q]=100•[…]; where Q is the ellipticity in degrees; […]

[2] = tested on: BE-M17 human neuroblastoma cells overexpressing A53T α-synuclein; experiment: Thioflavin S aggregation assay in rotenone-treated cells; assay type: cell-based
Excerpt: Therefore, to test the therapeutic potential of the compounds, two cell-based assays were utilized. In both assays, rotenone is used to induce mitochondrial oxidative stress and α-synuclein aggregation. The first assay utilizes the binding of the fluorescent dye thioflavin S to structures with high β-sheet content including α-synuclein fibrils. Therefore, quantitative assessment of the extent of thioflavin S-positive staining of fixed cells is used to test the ability of the compounds to decrease the amount of α-synuclein aggregates. In the second assay, cell viability is assessed using the XTT Cytotoxicity assay, which is dependent on intact, functional mitochondria in live cells. Thus, the XTT Cytotoxicity assay is used to test the ability of the compounds to ameliorate the mitochondrial toxicity and resulting loss of viability associated with the accumulation of α-synuclein aggregates. Phrased another way, the XTT Cytotoxicity assay is used to gauge the compounds neuroprotective efficacy. These studies are presented in the following examples.
BE-M17 human neuroblastoma cells stably transfected with A53T-mutant human α-synuclein were obtained. Cell culture reagents were obtained from Gibco/Invitrogen, and cells were grown in OPTIMEM supplemented with 10% FBS, Penicillin (100 units/mil)-Streptomycin (100 μg/ml) and 500 μg/ml G418 as previously described (Ostrerova-Golts et al., J. Neurosci., 20:6048-6054, 2000).
Thioflavin S is commonly used to detect amyloid-containing structures in situ, including in brain tissue (Vallet et al., Acta Neuropathol., 83:170-178, 1992), and cultured cells (Ostrerova-Golts et al., J. Neurosci., 20:6048-6054, 2000), whereas thioflavin T is often used as an in vitro reagent to analyze the aggregation of soluble amyloid proteins into fibrils enriched in β-pleated sheet structures (LeVine III, Prot. Sci., 2:404-410, 1993). Therefore, Thioflavin S histochemistry was used on cultured cells to detect aggregates containing a high degree of […] structures that formed in response to oxidative stress-inducing agents (in this case rotenone) as previously described, with minor modifications (Ostrerova-Golts et al., J. Neurosci, 20:6048-6054, 2000). Briefly, for these studies, cells were grown on Poly-D-Lysine coated glass slide chambers at approximately 3×10^4 cells/cm^2. After 24 hours, cells were treated with 500 nM, 1 μM or 5 μM rotenone (Sigma) or vehicle (0.05% DMSO) as indicated. Immediately after rotenone (or vehicle) addition, compounds were added at the indicated concentration, or cell culture media only (no compound) in the presence of rotenone was added. Identical treatments were repeated after 48 hours. After an additional 48 hours, cells were fixed for 25 minutes in 3% paraformaldehyde. After a PBS wash, the cells were incubated with 0.015% thioflavin S in 50% ethanol for 25 minutes, washed twice for four minutes in 50% ethanol and twice for five minutes in deionized water and then mounted using an aqueous-based mountant designed to protect against photobleaching. Aggregates that bind to thioflavin S were detected with a fluorescent microscope using a High Q FITC filter set (480 to 535 nm bandwidth) and a 20× objective lens unless otherwise indicated. Between 8 and 16 representative images per condition were selected, imaged and processed by an experimenter who was blinded to treatment conditions. To assess the amount of thioflavin S-positive aggregates, the total area per field covered by thioflavin S-positive inclusions was determined. […] Spurious, non-cell associated fluorescence was manually removed. Unless indicated otherwise, data represent group means ±SEM. Statistical analyses were performed with GraphPad Prism (GraphPad Inc). Differences between means (two samples) were assessed by the […]. Differences among multiple means were assessed by one-factor ANOVA followed by Tukey's multiple comparison test.

Aβ 1-42 fibrils [3] = biological target: T1, Aβ 1-42 fibrils; experiment: Congo red binding assay with Aβ 1-42 fibrils; assay type: biochemical; conditions: for % Inhibition Aβ (result ± S.D.), Congo red binding: 3-day incubation
Experimental: In the Congo red binding assay the ability of a test compound to alter amyloid (in this case, Aβ) binding to Congo red is quantified. In this assay, Aβ 1-42 and test compounds were incubated for 3 days and then vacuum filtered through a 0.2 μm filter. The amount of Aβ 1-42 retained in the filter was then quantitated following staining of the filter with Congo red. After appropriate washing of the filter, any lowering of the Congo red color on the filter in the presence of the test compound (compared to the Congo red staining of the amyloid protein in the absence of the test compound) was indicative of the test compound's ability to diminish/alter the amount of aggregated and congophilic Aβ.
In one study, the ability of Aβ fibrils to bind Congo red in the absence or presence of increasing amounts of the compounds or EDTA (at Aβ:test compound weight ratios of 1:1, 1:0.1, 1:0.01 or 1:0.001) was determined.

[4] = 1 μM rotenone, 1 μg/ml compound
[5] = Aβ:test compound wt/wt ratio 1:0.001
[6] = Aβ:test compound wt/wt ratio 1:0.1
[7] = Aβ:test compound wt/wt ratio 1:1
[8] = 5 μM rotenone, 1 μg/ml compound

T1 sequence (P05067 672-713): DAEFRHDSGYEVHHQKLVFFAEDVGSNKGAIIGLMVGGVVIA

Structure (SMILES) | reduction of rotenone-induced thioflavin S-positive aggregates [2, 4] [%] | % Inhibition Aβ (result ± S.D.), Congo red binding (Aβ 1-42 fibrils [3]; [5]) [%] | % Inhibition Aβ (result ± S.D.), Congo red binding (Aβ 1-42 fibrils [3]; [6]) [%] | % Inhibition Aβ (result ± S.D.), Congo red binding (Aβ 1-42 fibrils [3]; [7]) [%] | reduction of rotenone-induced thioflavin S-positive aggregates [2, 8] [%] | other results
O=C(Nc1ccc(O)c(O)c1)c1ccc(O)c(O)c1 [Compound 51, 3,4-dihydroxybenzoic acid 3,4-dihydroxyanilide] | 91 | – | – | – | – | disruption of β-sheet structure in Aβ 1-42 fibrils (CD minima at 218 nm) (Aβ 1-42 fibrils [1]; 3 days co-incubation, 25 μM Aβ 1-42 (FIG. 1, FIG. 2)): marked disruption of β-sheet structure; disruption of β-sheet structure of Aβ 1-42 fibrils (CD minima at 218 nm) (Aβ 1-42 fibrils [1]; Aβ:test compound wt/wt ratio of 1:10 (FIG. 3)): completely disrupt the β-sheet structure; dose-response of disruption of β-sheet structure of Aβ 1-42 fibrils (CD minima at 218 nm) (Aβ 1-42 fibrils [1]; Aβ:test compound wt/wt ratios of 1:0.1, 1:1 and 1:10 (FIG. 3)): dose-dependent decrease in the minima; reduction of rotenone-induced thioflavin S-positive aggregates ([2]; 1 μM rotenone, 500 ng/ml compound): 87%
Oc1ccc(Cc2ccc(O)c(O)c2)cc1O [Compound 3, 3,4,3′,4′-tetrahydroxydiphenylmethane] | 90 | 1.7 ± 4.21 | 35.7 ± 3.29 | 91.6±5.19 | – | reduction of rotenone-induced thioflavin S-positive aggregates ([2]; 1 μM rotenone, 5 μg/ml compound): 90%
O=C(O)CN(CCN(CC(=O)O)CC(=O)O)CC(=O)O [EDTA, reference compound] | – | 7.91 ± 3.61 | 3.6 ± 8.68 | 1.1 ± 7.02 | – | % Inhibition Aβ (result ± S.D.), Congo red binding (Aβ 1-42 fibrils [3]; Aβ:test compound wt/wt ratio 1:0.01): 0.0 ± 3.91%; inhibition of Aβ 1-42 fibril binding to Congo red (in words) (Aβ 1-42 fibrils [3]; all concentrations tested (ratios 1:1 to 1:0.001), 3 days): no significant inhibition
O=C(NCc1ccc(O)c(O)c1)C(=Cc1ccc(O)c(O)c1)NC(=O)c1ccc(O)c(O)c1 [Compound 21, α-(3,4-dihydroxybenzamido)-3,4-dihydroxycinnamic acid 3,4-dihydroxybenzyl amide] | – | – | – | – | 84 | –
O=C(Nc1ccc(O)c(O)c1)Nc1ccc(O)c(O)c1 [Compound 76, 1,3-bis(3,4-dihydroxyphenyl)urea] | – | – | – | – | 80 | reduction of rotenone-induced thioflavin S-positive aggregates ([2]; 5 μM rotenone, 500 ng/ml compound): 73%; reduction of rotenone-induced thioflavin S-positive aggregates ([2]; 5 μM rotenone, 5 μg/ml compound): 91%
